Read-outs that look alike come from different tables or passages of the source.
Assays:
mu-opioid receptor (MOR) = biological target: T1, mu-opioid receptor (MOR) (Rattus norvegicus, UniProt P33535); assay: MOR radioligand competition binding assay ([3H]-DAMGO); conditions: Mu screening results
T1 construct: Rat cortices were homogenized using 50 mM Tris, pH 7.4, and centrifuged at 16,500 rpm for 10 min; from tissue; host or cells: rat cortex membranes
Description: MOR binding assay: Rat cortices were homogenized using 50 mM Tris, pH 7.4, and centrifuged at 16,500 rpm for 10 min. The pellets were resuspended in fresh buffer and incubated at 37 °C for 30 min. Following incubation, the suspensions were centrifuged as before, the resulting pellets were resuspended in 100 volumes of 50 mM Tris, pH 7.4 plus 2 mg/mL bovine serum and the suspensions combined. Each assay tube contained 0.5 mL of membrane suspension, 2 nM [^3H]-DAMGO, and 0.02 mg/mL mixture in a total volume of 0.65 mL [13, 45, 53, 55].
(§1) All three binding assays were terminated by filtration through GF/B filters, soaked in 5 mg/mL bovine serum albumin, 50 mM Tris, pH 7.4, on a Tomtec Mach II Harvester 96. The filters were subsequently washed with 6 mL of assay buffer. Bound radioactivity was counted on a Wallac Betaplate Liquid Scintillation Counter. Experiments were conducted using two replicates and repeated twice. Values in Scheme 2 represent the mean ± SD of two experiments with two replicates in each test.

[1] = biological target: T2, kappa-opioid receptor (KOR) (Cavia porcellus, UniProt P41144); assay: KOR radioligand competition binding assay ([3H]U69,593); design: species or system guinea pig; conditions: Kappa screening results
T2 construct: Guinea pig cortices and cerebella were homogenized using 50 mM Tris, pH 7.4; from tissue; host or cells: guinea pig cortex and cerebellum membranes
Description: KOR binding assay: Guinea pig cortices and cerebella were homogenized using 50 mM Tris, pH 7.4, 10 mM MgCl2-6H2O, […] centrifuged and incubated as above. Each assay tube contained 2 nM [^3H]U69,593. Assay tubes were incubated for 2 h at 25 °C. Unlabeled U50,488 was used as a competitor to generate a standard curve and determine nonspecific binding.
as §1

[2] = biological target: T3, delta-opioid receptor (DOR) (Rattus norvegicus, UniProt P33533); assay: DOR radioligand competition binding assay ([3H]-DPDPE); conditions: Delta screening results
T3 construct: Rat cortices were homogenized using 50 mM Tris, pH 7.4, 10 mM MgCl2-6H2O, 200 µM PMSF; from tissue; host or cells: rat cortex membranes
Description: DOR binding assay: Rat cortices were homogenized using 50 mM Tris, pH 7.4, 10 mM MgCl2-6H2O, 200 µM PMSF, centrifuged and incubated as above. Each assay tube contained 2 nM [^3H]-DPDPE. Assay tubes were incubated for 2.5 h at 25 °C. Unlabeled DPDPE was used as a competitor to generate a standard curve and determine nonspecific binding.
as §1

[3] = experiment 1, unit inferred, read-out: Ki (Exp 1)
[4] = experiment 2, unit inferred, read-out: Ki (Exp 2)
[5] = mean of Exp 1 and Exp 2, unit inferred, read-out: MEAN (Ki)
[6] = mean of two experiments, read-out: Ki
[7] = first Ki column, unit not printed (apparently M), read-out: Ki (first column)
[8] = mean of both Ki, unit inferred, read-out: MEAN (Ki)
[9] = second Ki column, unit not printed (apparently M), read-out: Ki (second column)

SMILES	Ki (mu-opioid receptor (MOR); [3])	Ki (mu-opioid receptor (MOR); [4])	Ki (mu-opioid receptor (MOR); [5])	Ki (mu-opioid receptor (MOR); [6])	Ki [1, 3]	Ki [1, 4]	Ki [1, 5]	Ki [1, 6]	Ki [2, 7]	Ki [2, 8]	Ki [2, 6]	Ki [2, 9]
Cc1cc(O)cc(C)c1C[C@H]1CNC(=N)N1C[C@H](Cc1c(C)cc(O)cc1C)N1C[C@H](CC(C)C)NC1=N [1968-63]	62.8 nM	98.8 nM	80.8 nM	81 nM	1640 nM	1470 nM	1550 nM	1550 nM	2.27 µM	2.39 µM	2.39 µM	2.51 µM
Cc1cc(O)cc(C)c1C[C@H]1CN([C@@H](Cc2c(C)cc(O)cc2C)CN2C(=N)NC[C@@H]2Cc2c(C)cc(O)cc2C)C(=N)N1 [1968-64]	58.6 nM	88 nM	73.3 nM	73 nM	2820 nM	1590 nM	2210 nM	2210 nM	0.508 µM	0.579 µM	0.579 µM	0.65 µM
N=C1NC[C@H](Cc2ccccc2)N1C[C@H](Cc1ccccc1)N1C[C@H](Cc2ccccc2)NC1=N [1968-65]	2370 nM	2830 nM	2600 nM	2600 nM	16600 nM	15200 nM	15900 nM	15900 nM	7.34 µM	7.32 µM	7.32 µM	7.29 µM
CC(C)C[C@H]1CN([C@@H](Cc2ccc(O)cc2)CN2C(=N)NC[C@@H]2Cc2ccccc2)C(=N)N1 [1968-66]	2040 nM	1990 nM	2020 nM	2020 nM	2660 nM	3320 nM	2990 nM	2990 nM	18.2 µM	–	–	–
Cc1cc(O)cc(C)c1C[C@@H](CN1C(=N)NC[C@@H]1Cc1ccccc1)N1C[C@H](Cc2ccccc2)NC1=N [1968-67]	230 nM	177 nM	203 nM	203 nM	1230 nM	1120 nM	1170 nM	1170 nM	0.828 µM	0.83 µM	0.83 µM	0.833 µM
Cc1cc(O)cc(C)c1C[C@H]1CN([C@@H](Cc2c(C)cc(O)cc2C)CN2C(=N)NC[C@@H]2Cc2ccccc2)C(=N)N1 [1968-68]	89.3 nM	76.7 nM	83 nM	83 nM	538 nM	568 nM	553 nM	553 nM	0.426 µM	0.462 µM	0.462 µM	0.498 µM
CC(C)C[C@H]1CN([C@@H](Cc2ccccc2)CN2C(=N)NC[C@@H]2Cc2ccc(O)cc2)C(=N)N1 [1968-69]	208 nM	188 nM	198 nM	198 nM	2120 nM	2130 nM	2120 nM	2120 nM	4.23 µM	4.63 µM	4.63 µM	5.02 µM
N=C1NC[C@H](Cc2ccc(O)cc2)N1C[C@H](Cc1ccc(O)cc1)N1C[C@H](Cc2ccc(O)cc2)NC1=N [1968-70]	230 nM	282 nM	256 nM	256 nM	11100 nM	5550 nM	8320 nM	8320 nM	9.96 µM	10.8 µM	10.8 µM	11.7 µM
Cc1cc(O)cc(C)c1C[C@H]1CNC(=N)N1C[C@H](Cc1ccc(O)cc1)N1C[C@H](CC(C)C)NC1=N [1968-71]	58 nM	53 nM	55.5 nM	56 nM	373 nM	386 nM	380 nM	380 nM	3.83 µM	3.43 µM	3.43 µM	3.02 µM

— PMC9455983 (International Journal of Molecular Sciences, 2022)
